{
  "source": "patent US20220273660A1",
  "about": "“MEK INHIBITOR FOR TREATMENT OF STROKE” (EDVINCE AB, priority 2019, published 2022)",
  "key": {"[1]": {"test_system": "ETB receptor", "assay": "Intracellular flow cytometry of SMC expressing ETB receptor after SAH", "type": "in vivo, rat", "settings": "i.p. at 6 and 24 h post-SAH", "procedure": "The MCAs, BA and the circle of Willis were pooled from one rat. The VSMCs of the cerebral arteries was isolated by a novel technique advanced by the present inventors based on two other protocols (Navone et al, 2013, Nat Protoc; van Beijnum et al, 2008, Nat Protoc). The tissue were disrupted mechanically (scalpel) and then subjected to enzymatic digestion with highly purified Collagenase I and Collagenase II. Isolated cell suspensions were fixed with 4% paraformaldehyde for 30 minutes, washed with PBS and thereafter permeabilized with 0.25% TritonX-100. Cells were resuspended in blocking buffer containing 5% donkey serum and double-stained overnight at 4° C. with primary goat anti-SM22α (1:100, Abcam) or goat isotope control IgG (5 μg/mL, Abcam) and primary antibody rabbit anti-ETB (1:100, Abcam) or rabbit isotope control IgG (10 μg/mL, Abcam) in the same blocking buffer. […] Finally, cell suspensions were diluted to a final volume of 0.5 mL with PBS before analyzed by fluorescent-activated cell sorting (FACS) on the BD FACSVerse machine (BD Biosciences, USA). Fluorescence was induced with a 640 nm red laser. The ratio of SM22α-positive cells expressing ETB was calculated in each sample. Data was analyzed by the BD FACSuite Software."}, "[2]": {"test_system": "rat subarachnoid hemorrhage model", "assay": "In vivo SAH, intraperitoneal trametinib, ET-1 concentration-response in BAs (Example 11)", "method": "Thirty-two rats were operated for this study. Animals were treated intraperitoneally with 250 μl/body weight of a 1 mM solution of trametinib (Selleckchem), yielding a final dose of 95 μg/body weight, diluted in 10% cremophor and 10% PEG400 in NaCl. Animals in the vehicle and sham group were treated with 250 μl/body weight 10% cremophor and 10% PEG400 in NaCl. Treatment was intraperitoneally administered either at 1 h and 24 h or 6 h and 24 h post surgery. Animals were terminated 48 h after surgery by CO2 anesthesia and decapitation."}},
  "data": [
    {"smiles": "CC(=O)Nc1cccc(-n2c(=O)n(C3CC3)c(=O)c3c(Nc4ccc(I)cc4F)n(C)c(=O)c(C)c32)c1", "note": "[trametinib]", "values": [
      {"measurement": "increased ETB receptor protein expression in SMC", "setting": "[1]", "value": "not significant abolished"},
      {"measurement": "increased ET-1-induced concentration-response curve in BAs after SAH", "setting": "[2]; i.p. 1 mM at 1 and 24 h post-SAH", "value": "significantly inhibited"},
      {"measurement": "increased ET-1-induced concentration-response curve in BAs after SAH", "setting": "[2]; i.p. 1 mM at 6 and 24 h post-SAH", "value": "significantly inhibited"}
    ]}
  ]
}
